Experimental data published in PMC5218480 (PLoS ONE, 2017).

Tested on: MV-4-11 cells
Assay: Gene expression microarray analysis (Affymetrix PrimeView) and GSEA
Type: cell-based, human
Parameters: RFU PODN (11730768_x_at) / Fold change /veh PODN (11730768_x_at) / RFU LINC00158 (11744669_a_at) / Fold change /veh LINC00158 (11744669_a_at) / RFU DUSP10 (11751237_a_at) / Fold change /veh DUSP10 (11751237_a_at) / RFU ID3 (11757404_x_at) / Fold change /veh ID3 (11757404_x_at) / RFU PLEKHG5 (11737974_s_at) / Fold change /veh PLEKHG5 (11737974_s_at) / RFU LRRC4B (11730491_at) / Fold change /veh LRRC4B (11730491_at) / RFU GIMAP4 (11747438_a_at) / Fold change /veh GIMAP4 (11747438_a_at) / RFU KRT8 (11758183_x_at) / Fold change /veh KRT8 (11758183_x_at) / RFU CNN1 (11734310_a_at) / Fold change /veh CNN1 (11734310_a_at) / RFU VPS37D (11726825_at) / Fold change /veh VPS37D (11726825_at) / RFU C10orf10 (11716522_x_at) / Fold change /veh C10orf10 (11716522_x_at) / RFU KIR2DL2 /// KIR2DL4 /// KIR2DL5A /// KIR2DL5B /// KIR2DS1 /// KIR2DS2 /// KIR2DS3 /// KIR2DS4 /// KIR3DL3 /// KIR3DL3 /// KIR3DS1 (11738374_at) / Fold change /veh KIR2DL2 /// KIR2DL4 /// KIR2DL5A /// KIR2DL5B /// KIR2DS1 /// KIR2DS2 /// KIR2DS3 /// KIR2DS4 /// KIR3DL3 /// KIR3DL3 /// KIR3DS1 (11738374_at) / RFU C1QL1 (11718748_at) / Fold change /veh C1QL1 (11718748_at) / RFU TMPRSS4 (11747572_a_at) / Fold change /veh TMPRSS4 (11747572_a_at) / RFU HAMP (11756126_x_at) / Fold change /veh HAMP (11756126_x_at) / RFU RNFT2 (11725882_a_at) / Fold change /veh RNFT2 (11725882_a_at) / RFU NR4A2 (11747474_a_at) / Fold change /veh NR4A2 (11747474_a_at) / RFU ABCC12 (11746883_a_at) / Fold change /veh ABCC12 (11746883_a_at) / RFU TMEM136 (11760407_x_at) / Fold change /veh TMEM136 (11760407_x_at) / RFU CLDN22 /// WWC2 (11732394_at) / Fold change /veh CLDN22 /// WWC2 (11732394_at) / RFU HLA-DPB1 (11760878_x_at) / Fold change /veh HLA-DPB1 (11760878_x_at) / RFU SPINT1 (11716480_a_at) / Fold change /veh SPINT1 (11716480_a_at) / RFU GAP43 (11754022_s_at) / Fold change /veh GAP43 (11754022_s_at) / RFU A4GNT (11735810_at) / Fold change /veh A4GNT (11735810_at) / RFU PRB3 (11715151_x_at) / Fold change /veh PRB3 (11715151_x_at) / RFU TUBB4B (11761932_at) / Fold change /veh TUBB4B (11761932_at) / RFU CAPN14 (11732068_a_at) / Fold change /veh CAPN14 (11732068_a_at) / RFU TMCC2 (11721928_a_at) / Fold change /veh TMCC2 (11721928_a_at) / RFU IRGQ (11745062_a_at) / Fold change /veh IRGQ (11745062_a_at) / RFU FAM174B (11720279_a_at) / Fold change /veh FAM174B (11720279_a_at) / RFU TMPRSS4 (11748680_a_at) / Fold change /veh TMPRSS4 (11748680_a_at) / RFU FAM212B (11763350_a_at) / Fold change /veh FAM212B (11763350_a_at) / RFU PLEKHG5 (11743358_a_at) / Fold change /veh PLEKHG5 (11743358_a_at) / RFU ZSCAN30 (11745921_a_at) / Fold change /veh ZSCAN30 (11745921_a_at) / RFU CMKLR1 (11741424_a_at) / Fold change /veh CMKLR1 (11741424_a_at) / RFU LOC101060620 /// MAPK8IP1 (11723275_at) / Fold change /veh LOC101060620 /// MAPK8IP1 (11723275_at) / RFU SPTSSB (11747773_x_at) / Fold change /veh SPTSSB (11747773_x_at) / RFU PRSS12 (11739890_at) / Fold change /veh PRSS12 (11739890_at) / RFU BIN1 (11741810_x_at) / Fold change /veh BIN1 (11741810_x_at) / RFU WNT11 (11732464_a_at) / Fold change /veh WNT11 (11732464_a_at) / RFU C10orf10 (11716521_a_at) / Fold change /veh C10orf10 (11716521_a_at) / RFU C5orf56 (11738089_at) / Fold change /veh C5orf56 (11738089_at) / RFU CYB561 (11721691_x_at) / Fold change /veh CYB561 (11721691_x_at) / RFU ANKRD19P (11752326_a_at) / Fold change /veh ANKRD19P (11752326_a_at) / RFU OR2T12 /// OR2T33 /// OR2T8 (11738714_s_at) / Fold change /veh OR2T12 /// OR2T33 /// OR2T8 (11738714_s_at) / RFU VCAN (11748164_a_at) / Fold change /veh VCAN (11748164_a_at) / RFU JSRP1 (11732532_at) / Fold change /veh JSRP1 (11732532_at) / RFU KRTAP10-11 (11738290_x_at) / Fold change /veh KRTAP10-11 (11738290_x_at) / RFU MYO3A (11730013_a_at) / Fold change /veh MYO3A (11730013_a_at) / RFU EBF3 (11725865_a_at) / Fold change /veh EBF3 (11725865_a_at) / RFU CAMK2N1 (11719241_x_at) / Fold change /veh CAMK2N1 (11719241_x_at) / RFU C5orf56 (11738088_a_at) / Fold change /veh C5orf56 (11738088_a_at) / RFU OLFML3 (11715873_a_at) / Fold change /veh OLFML3 (11715873_a_at) / RFU LOC100653217 /// NTM (11731650_a_at) / Fold change /veh LOC100653217 /// NTM (11731650_a_at) / RFU MAPK11 (11762145_a_at) / Fold change /veh MAPK11 (11762145_a_at) / RFU FIZ1 (11724087_x_at) / Fold change /veh FIZ1 (11724087_x_at) / RFU OASL (11726364_x_at) / Fold change /veh OASL (11726364_x_at) / RFU SOX15 (11748057_x_at) / Fold change /veh SOX15 (11748057_x_at) / RFU CD79A (11719716_a_at) / Fold change /veh CD79A (11719716_a_at) / RFU HIST1H1D (11736915_at) / Fold change /veh HIST1H1D (11736915_at) / RFU CASKIN2 (11723855_a_at) / Fold change /veh CASKIN2 (11723855_a_at) / RFU LOC730098 (11760151_x_at) / Fold change /veh LOC730098 (11760151_x_at) / RFU OR4N2 (11742367_at) / Fold change /veh OR4N2 (11742367_at) / RFU PRRT2 (11749266_a_at) / Fold change /veh PRRT2 (11749266_a_at) / RFU SNX32 (11753110_a_at) / Fold change /veh SNX32 (11753110_a_at) / RFU CDHR5 (11726645_a_at) / Fold change /veh CDHR5 (11726645_a_at) / RFU RCAN1 (11760418_a_at) / Fold change /veh RCAN1 (11760418_a_at) / RFU FAM167A (11723789_a_at) / Fold change /veh FAM167A (11723789_a_at) / RFU FAM26E (11764081_at) / Fold change /veh FAM26E (11764081_at) / RFU ISYNA1 (11749810_s_at) / Fold change /veh ISYNA1 (11749810_s_at) / RFU ACY1 (11761880_at) / Fold change /veh ACY1 (11761880_at) / RFU 11764098_at / Fold change /veh 11764098_at / RFU SAMD14 (11745864_x_at) / Fold change /veh SAMD14 (11745864_x_at) / RFU NPB (11741838_a_at) / Fold change /veh NPB (11741838_a_at) / RFU TMPRSS6 (11731388_a_at) / Fold change /veh TMPRSS6 (11731388_a_at) / RFU KRTAP10-2 (11738614_at) / Fold change /veh KRTAP10-2 (11738614_at) / RFU ARHGAP8 /// PRR5-ARHGAP8 (11727945_x_at) / Fold change /veh ARHGAP8 /// PRR5-ARHGAP8 (11727945_x_at) / RFU KRTAP5-7 /// NADSYN1 (11734609_at) / Fold change /veh KRTAP5-7 /// NADSYN1 (11734609_at) / RFU RASL12 (11751679_a_at) / Fold change /veh RASL12 (11751679_a_at) / RFU CDKN2B (11736163_a_at) / Fold change /veh CDKN2B (11736163_a_at) / RFU PRF1 (11729649_at) / Fold change /veh PRF1 (11729649_at) / RFU, ZNF638 /// ZNF638-IT1 / Fold change vs veh, ZNF638 /// ZNF638-IT1 / RFU, PANK3 / Fold change vs veh, PANK3 / RFU, SH3YL1 / Fold change vs veh, SH3YL1 / RFU, ZEB2 / Fold change vs veh, ZEB2 / RFU, NRIP1 / Fold change vs veh, NRIP1 / RFU, PTTG1IP / Fold change vs veh, PTTG1IP / RFU, CAPN2 / Fold change vs veh, CAPN2 / RFU, MED14 / Fold change vs veh, MED14 / RFU, SNORA58 / Fold change vs veh, SNORA58 / RFU, C1orf63 / Fold change vs veh, C1orf63 / RFU, LRRFIP1 / Fold change vs veh, LRRFIP1 / RFU, NDUFAF7 / Fold change vs veh, NDUFAF7 / RFU, SLC12A2 / Fold change vs veh, SLC12A2 / RFU, IBTK / Fold change vs veh, IBTK / RFU, ESF1 / Fold change vs veh, ESF1 / Fold change vs veh, TMEM50B / RFU, TAOK1 / Fold change vs veh, TAOK1 / RFU, ACBD3 / Fold change vs veh, ACBD3 / RFU, TMA16 / Fold change vs veh, TMA16 / RFU, RWDD3 / Fold change vs veh, RWDD3 / RFU, BCAT1 / Fold change vs veh, BCAT1 / RFU, EDEM3 / Fold change vs veh, EDEM3 / RFU, TMEM33 / Fold change vs veh, TMEM33 / RFU, WDR75 / Fold change vs veh, WDR75 / RFU, AHCTF1 / Fold change vs veh, AHCTF1 / RFU, TFRC / Fold change vs veh, TFRC / RFU, ZDHHC17 / Fold change vs veh, ZDHHC17 / RFU, NOM1 / Fold change vs veh, NOM1 / RFU, ARL8B / Fold change vs veh, ARL8B / RFU, ZBTB11 / Fold change vs veh, ZBTB11 / RFU, TAMM41 / Fold change vs veh, TAMM41 / RFU, KIAA1704 /// LOC100996395 / Fold change vs veh, KIAA1704 /// LOC100996395 / RFU, ING1 / Fold change vs veh, ING1 / RFU, TRMT61B / Fold change vs veh, TRMT61B / RFU, FUBP3 / Fold change vs veh, FUBP3 / RFU, TP53 / Fold change vs veh, TP53 / RFU, TNKS2 / Fold change vs veh, TNKS2 / RFU, ZFP14 / Fold change vs veh, ZFP14 / RFU, ACTR2 / Fold change vs veh, ACTR2 / RFU, PPP3R1 / Fold change vs veh, PPP3R1 / RFU, PIK3R1 / Fold change vs veh, PIK3R1 / RFU, HNRNPA1 / Fold change vs veh, HNRNPA1 / RFU, RNF170 / Fold change vs veh, RNF170 / RFU, ZNF28 / Fold change vs veh, ZNF28 / RFU, RNGTT / Fold change vs veh, RNGTT / RFU, OGT / Fold change vs veh, OGT / RFU, BRD1 / Fold change vs veh, BRD1 / RFU, MARS / Fold change vs veh, MARS / RFU, ZNF655 / Fold change vs veh, ZNF655 / RFU, FAHD1 / Fold change vs veh, FAHD1 / RFU, BDP1 / Fold change vs veh, BDP1 / RFU, LRRCC1 / Fold change vs veh, LRRCC1 / RFU, ARID1A / Fold change vs veh, ARID1A / RFU, ZNF146 / Fold change vs veh, ZNF146 / RFU, ZNF330 / Fold change vs veh, ZNF330 / RFU, GPN3 / Fold change vs veh, GPN3 / RFU, C9orf123 / Fold change vs veh, C9orf123 / RFU, N4BP2L2 / Fold change vs veh, N4BP2L2 / RFU, ARFIP1 / Fold change vs veh, ARFIP1 / RFU, FAM179B / Fold change vs veh, FAM179B / RFU, BCL10 / Fold change vs veh, BCL10 / RFU, UHRF1BP1L / Fold change vs veh, UHRF1BP1L / RFU, BET1 / Fold change vs veh, BET1 / RFU, CNOT2 / Fold change vs veh, CNOT2 / RFU, ZNF268 / Fold change vs veh, ZNF268 / Fold change vs veh, ZNF507 / RFU, DGCR2 / Fold change vs veh, DGCR2 / RFU, WDSUB1 / Fold change vs veh, WDSUB1 / Fold change vs veh, HSP90B1 /// MIR3652 / RFU, ADSS / Fold change vs veh, ADSS / RFU, GK / Fold change vs veh, GK / RFU, ZNF148 / Fold change vs veh, ZNF148 / RFU, TAF9 / Fold change vs veh, TAF9 / RFU, SLC1A5 / Fold change vs veh, SLC1A5 / RFU, SLMO2 / Fold change vs veh, SLMO2 / RFU, ABCC4 / Fold change vs veh, ABCC4 / RFU, LOC101060439 /// RAP1B / Fold change vs veh, LOC101060439 /// RAP1B / RFU, RFX7 / Fold change vs veh, RFX7 / RFU, GTPBP10 / Fold change vs veh, GTPBP10 / RFU, CNEP1R1 / Fold change vs veh, CNEP1R1 / RFU, BIVM-ERCC5 /// ERCC5 / Fold change vs veh, BIVM-ERCC5 /// ERCC5 / RFU, ILF3 / Fold change vs veh, ILF3 / RFU 11762660_at / Fold change /veh 11762660_at / RFU VCAN (11757783_s_at) / Fold change /veh VCAN (11757783_s_at) / RFU DDX43 (11728927_at) / Fold change /veh DDX43 (11728927_at) / RFU KRT8 (11758188_x_at) / Fold change /veh KRT8 (11758188_x_at) / RFU NKD1 (11759106_at) / Fold change /veh NKD1 (11759106_at) / RFU SRD5A1 (11742802_a_at) / Fold change /veh SRD5A1 (11742802_a_at) / RFU TPSAB1 /// TPSB2 (11721975_s_at) / Fold change /veh TPSAB1 /// TPSB2 (11721975_s_at) / RFU GSTM3 (11746129_a_at) / Fold change /veh GSTM3 (11746129_a_at) / RFU IL23R (11737362_x_at) / Fold change /veh IL23R (11737362_x_at) / RFU TMEM51 (11727254_a_at) / Fold change /veh TMEM51 (11727254_a_at) / RFU PIWIL2 (11732686_x_at) / Fold change /veh PIWIL2 (11732686_x_at) / RFU ORM1 (11744905_x_at) / Fold change /veh ORM1 (11744905_x_at) / RFU CCDC152 (11743942_at) / Fold change /veh CCDC152 (11743942_at) / RFU ECM1 (11717891_a_at) / Fold change /veh ECM1 (11717891_a_at) / RFU IL23R (11748794_a_at) / Fold change /veh IL23R (11748794_a_at) / RFU TNFAIP8L3 (11732012_x_at) / Fold change /veh TNFAIP8L3 (11732012_x_at) / RFU MBOAT4 (11741988_at) / Fold change /veh MBOAT4 (11741988_at) / RFU 11764193_at / Fold change /veh 11764193_at / RFU TMEM53 (11763286_at) / Fold change /veh TMEM53 (11763286_at) / RFU MAGEB2 (11727129_at) / Fold change /veh MAGEB2 (11727129_at) / RFU TMEM200A (11744735_a_at) / Fold change /veh TMEM200A (11744735_a_at) / RFU CCDC152 (11751479_a_at) / Fold change /veh CCDC152 (11751479_a_at) / RFU FAM211A (11726209_a_at) / Fold change /veh FAM211A (11726209_a_at) / RFU RGS16 (11746705_a_at) / Fold change /veh RGS16 (11746705_a_at) / RFU VCAN (11755009_s_at) / Fold change /veh VCAN (11755009_s_at) / RFU RHOB (11743442_s_at) / Fold change /veh RHOB (11743442_s_at) / RFU RGS16 (11720943_a_at) / Fold change /veh RGS16 (11720943_a_at) / RFU RGS16 (11720944_at) / Fold change /veh RGS16 (11720944_at) / RFU, VPS4B / Fold change vs veh, VPS4B / RFU, CREB1 / Fold change vs veh, CREB1 / RFU, DNAJC13 / Fold change vs veh, DNAJC13 / RFU, GNAQ / Fold change vs veh, GNAQ / RFU, CDK5R1 / Fold change vs veh, CDK5R1 / RFU, ZRANB3 / Fold change vs veh, ZRANB3 / RFU, CUL4A / Fold change vs veh, CUL4A / RFU, CCNY / Fold change vs veh, CCNY / RFU, UFL1 / Fold change vs veh, UFL1 / RFU, COG3 / Fold change vs veh, COG3 / RFU, DIAPH2 / Fold change vs veh, DIAPH2 / RFU, SKA2 / Fold change vs veh, SKA2 / RFU, AFF3 / Fold change vs veh, AFF3 / RFU, LMF1 / Fold change vs veh, LMF1 / RFU, IPO11 / Fold change vs veh, IPO11 / RFU, DFFB / Fold change vs veh, DFFB / RFU, FOXP1 / Fold change vs veh, FOXP1 / RFU, CARD8 / Fold change vs veh, CARD8 / RFU, STRN3 / Fold change vs veh, STRN3 / RFU, ADK / Fold change vs veh, ADK / RFU, RASSF2 / Fold change vs veh, RASSF2 / RFU, WIPF1 / Fold change vs veh, WIPF1 / RFU, LARP1B / Fold change vs veh, LARP1B / RFU, RASA1 / Fold change vs veh, RASA1 / RFU, RB1 / Fold change vs veh, RB1 / RFU, PPFIA1 / Fold change vs veh, PPFIA1 / RFU, MAT2A / Fold change vs veh, MAT2A / RFU, CCT5 / Fold change vs veh, CCT5 / RFU, WDR92 / Fold change vs veh, WDR92 / RFU, CUX1 / Fold change vs veh, CUX1 / RFU, TTC7A / Fold change vs veh, TTC7A / RFU, TMEM135 / Fold change vs veh, TMEM135 / RFU, DEPTOR / Fold change vs veh, DEPTOR / RFU, CPM / Fold change vs veh, CPM / RFU, DNAJB6 / Fold change vs veh, DNAJB6 / RFU, CACNA2D3 / Fold change vs veh, CACNA2D3 / RFU, DTX4 / Fold change vs veh, DTX4 / RFU, TFCP2 / Fold change vs veh, TFCP2 / RFU, GMCL1 /// GMCL1P1 / Fold change vs veh, GMCL1 /// GMCL1P1 / RFU, AEBP2 / Fold change vs veh, AEBP2 / RFU, SNHG1 /// SNORD22 /// SNORD25 /// SNORD26 /// SNORD27 /// SNORD28 /// SNORD29 /// SNORD31 / Fold change vs veh, SNHG1 /// SNORD22 /// SNORD25 /// SNORD26 /// SNORD27 /// SNORD28 /// SNORD29 /// SNORD31 / Fold change (Aza/veh), C12orf56 (ProbeSet 11735607_a_at) / Fold change (ACY-1035/veh), C12orf56 (ProbeSet 11735607_a_at) / Fold change (Aza/veh), FGFR1OP (ProbeSet 11751329_s_at) / Fold change (ACY-1035/veh), FGFR1OP (ProbeSet 11751329_s_at) / Fold change (Aza/veh), VPS36 (ProbeSet 11739960_a_at) / Fold change (ACY-1035/veh), VPS36 (ProbeSet 11739960_a_at) / RFU SYPL1 (11715823_x_at) / Fold change /veh SYPL1 (11715823_x_at) / RFU IGFBP7 (11715501_s_at) / Fold change /veh IGFBP7 (11715501_s_at) / RFU REEP3 (11722064_at) / Fold change /veh REEP3 (11722064_at) / RFU IGLL1 (11728026_x_at) / Fold change /veh IGLL1 (11728026_x_at): dose or concentration left out as unconfirmed
Details: ProbeSet 11721521_at; LIST B

With Nc1ncn([C@@H]2O[C@H](CO)[C@@H](O)[C@H]2O)c(=O)n1 [azacitidine] the “Fold change vs veh, ZDHHC17” value was 0.88.
